These results are taken from US20260193293A1, “PEPTIDES CAPABLE OF INHIBITING PROTEIN-PROTEIN INTERACTIONS AT GABAB1A SUBUNIT AND USES THEREOF” (UNIVERSITY OF COPENHAGEN, priority 2022, published 2026).

Where two headings read alike, the source gives them in different places. Non-standard residues stand in square brackets, D forms with d. Residues, ends and D or L forms follow the SMILES beside them. NMeE = CN[C@@H](CCC(=O)O)C(=O)O

This assay concerns the target Sushi domains (SD1/2) protein. As to the kind of experiment: Fluorescence polarization (FP) competition assay with AJAP-1probe, calculated Ki. Type of assay: binding. The procedure, abridged: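 Ki values were derived from IC50s (sigmoidal fits, ≥ triplicate), with probe Kd obtained by saturation titration of SD1/2. Peptides displaced a 25 nM TAMRA-labelled probe; polarization read at 530/580 nm in 1% BSA-containing PBS, pH 7.4, room temperature.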

The mark [1] stands for this setting: Table 11, deep mutational scanning validation variants of AJAP-1WT, read-out: Ki (nM) mean ± SEM.
The mark [2] stands for this setting: Table 4, truncation and elongation scans of APP epitope, read-out: Ki (nM) mean ± SEM.
The mark [3] stands for this setting: Table 8, Ala-, D-amino acids and N-methylation scans of AJAP-1WT, read-out: Ki (nM) mean ± SEM.
Setting [4] is: Table 1, affinity maturation, mean ± SEM, n ≥ 3, read-out: Ki.
Setting [5] is: Table 13, peptides for affinity maturation, read-out: Ki (nM) mean ± SEM.

Regarding `CC[C@H](C)[C@H](NC(=O)[C@H](C)NC(=O)[C@H](Cc1c[nH]c2ccccc12)NC(=O)[C@@H](NC(C)=O)C(C)C)C(=O)N[C@H](C(=O)N[C@@H](Cc1c[nH]c2ccccc12)C(=O)NCC(=O)N1CCC[C@H]1C(=O)N[C@H](C(=O)N[C@H](C(=O)N[C@@H](CO)C(=O)N[C@@H](CCCNC(=N)N)C(=O)N[C@@H](CCC(=O)O)C(=O)N[C@@H](CC(=O)O)C(N)=O)C(C)C)[C@@H](C)O)C(C)C` [VWAIVWGPTVSRED] (Ac-VWAIVWGPTVSRED-NH2), under “Table 12, deep mutational scanning validation variants of PIANPWT, read-out: Ki (nM) mean ± SEM”, the Ki was 412 ± 20 nM. As for `CC[C@H](C)[C@H](NC(=O)[C@H](Cc1ccccc1)NC(=O)[C@H](CCC(=O)O)NC(=O)[C@@H](NC(=O)[C@H](CCC(=O)O)NC(C)=O)[C@@H](C)O)C(=O)N[C@H](C(=O)N[C@@H](Cc1c[nH]c2ccccc12)C(=O)NCC(=O)N1CCC[C@H]1C(=O)N[C@H](C(=O)NCC(=O)N[C@@H](CC(=O)O)C(=O)N[C@@H](CCC(=O)O)C(=O)N[C@@H](CC(=O)O)C(N)=O)[C@@H](C)O)C(C)C` [ETEFIVWGPTGDED] (Ac-ETEFIVWGPTGDED-NH2), the Ki under setting [1] was 30 ± 1 nM. On the same count and under the same terms, the value for `CC[C@H](C)[C@H](NC(=O)[C@H](Cc1ccccc1)NC(=O)[C@H](CCC(=O)O)NC(=O)[C@@H](NC(=O)[C@H](CCC(=O)O)NC(C)=O)[C@@H](C)O)C(=O)N[C@@H](Cc1c[nH]cn1)C(=O)N[C@@H](Cc1c[nH]c2ccccc12)C(=O)NCC(=O)N1CCC[C@H]1C(=O)N[C@H](C(=O)NCC(=O)N[C@@H](CC(=O)O)C(=O)N[C@@H](CCC(=O)O)C(=O)N[C@@H](CC(=O)O)C(N)=O)[C@@H](C)O` [ETEFIHWGPTGDED] (Ac-ETEFIHWGPTGDED-NH2) was 24 ± 1 nM. As for `CC[C@H](C)[C@H](NC(=O)[C@H](Cc1c[nH]c2ccccc12)NC(=O)[C@H](CC(=O)O)NC(=O)[C@H](CC(=O)O)NC(=O)[C@H](CC(=O)O)NC(=O)[C@H](CCC(=O)O)NC(C)=O)C(=O)N[C@@H](CC(=O)O)C(=O)N[C@@H](Cc1c[nH]c2ccccc12)C(=O)N[C@@H](Cc1ccc(O)cc1)C(=O)N[C@@H](CC(=O)O)C(=O)N[C@@H](CO)C(=O)N[C@@H](CC(=O)O)C(=O)N[C@@H](CC(=O)O)C(=O)N[C@@H](CC(=O)O)C(=O)N[C@@H](CCCNC(=N)N)C(=O)N[C@@H](CCCNC(=N)N)C(=O)N[C@@H](CCCNC(=N)N)C(=O)N[C@@H](CCCNC(=N)N)C(=O)N[C@@H](CCCNC(=N)N)C(=O)N[C@@H](CCCNC(=N)N)C(=O)N[C@@H](CCCNC(=N)N)C(=O)N[C@@H](CCCNC(=N)N)C(N)=O` [Peptide 16-R8] (Ac-EDDDWIDWYDSDDDRRRRRRRR-NH2), the Ki runs as follows: (CPP tagged peptides overview, SD1/2 binding affinity, mean ± SEM, n ≥ 3, read-out: Ki) 65 ± 1 nM; (Table 14, CPPs tagged peptides, read-out: Ki (nM) mean ± SEM) 65.3 ± 1 nM. As for `CC(=O)N[C@@H](CC(=O)O)C(=O)N[C@@H](CC(=O)O)C(=O)N[C@@H](CO)C(=O)N[C@@H](CC(=O)O)C(=O)N[C@H](C(=O)N[C@@H](Cc1c[nH]c2ccccc12)C(=O)N[C@@H](Cc1c[nH]c2ccccc12)C(=O)NCC(=O)NCC(=O)N[C@@H](C)C(=O)N[C@@H](CC(=O)O)C(=O)N[C@H](C(=O)N[C@@H](CC(=O)O)C(=O)N[C@@H](Cc1ccc(O)cc1)C(=O)N[C@@H](C)C(=O)N[C@@H](CC(=O)O)C(N)=O)[C@@H](C)O)C(C)C` (Ac-DDSDVWWGGADTDYAD-NH2), the Ki under setting [2] is 517 ± 16 nM. `CC[C@H](C)[C@H](NC(=O)[C@H](Cc1ccccc1)NC(=O)[C@H](CCC(=O)O)NC(=O)[C@@H](NC(=O)[C@H](CCC(=O)O)NC(C)=O)[C@@H](C)O)C(=O)N[C@@H](C)C(=O)N[C@@H](Cc1c[nH]c2ccccc12)C(=O)NCC(=O)N1CCC[C@H]1C(=O)N[C@@H](Cc1c[nH]cn1)C(=O)NCC(=O)N[C@@H](CC(=O)O)C(=O)N[C@@H](CCC(=O)O)C(=O)N[C@@H](CC(=O)O)C(N)=O` [ETEFIAWGPHGDED] (Ac-ETEFIAWGPHGDED-NH2): the Ki under setting [1] is 38 ± 1 nM. Take `CC(=O)N[C@@H](CCC(=O)O)C(=O)N[C@@H](CCC(=O)O)C(=O)N[C@@H](CC(=O)O)C(=O)N[C@@H](CC(=O)O)C(=O)N[C@@H](CO)C(=O)N[C@@H](CC(=O)O)C(=O)N[C@H](C(=O)N[C@@H](Cc1c[nH]c2ccccc12)C(=O)N[C@@H](Cc1c[nH]c2ccccc12)C(=O)NCC(=O)NCC(=O)N[C@@H](C)C(=O)N[C@@H](CC(=O)O)C(=O)N[C@H](C(=O)N[C@@H](CC(=O)O)C(=O)N[C@@H](Cc1ccc(O)cc1)C(=O)N[C@@H](C)C(=O)N[C@@H](CC(=O)O)C(=O)NCC(=O)NCC(=O)N[C@@H](CCC(=O)O)C(=O)N[C@@H](CC(=O)O)C(=O)N[C@@H](CCCCN)C(N)=O)[C@@H](C)O)C(C)C` (Ac-EEDDSDVWWGGADTDYADGGEDK-NH2): under setting [2], the Ki was 392 ± 14 nM. `CC[C@H](C)[C@H](NC(=O)[C@H](Cc1ccccc1)NC(=O)[C@H](CCC(=O)O)NC(=O)[C@@H](NC(=O)[C@H](CCC(=O)O)N(C)C(C)=O)[C@@H](C)O)C(=O)N[C@@H](C)C(=O)N[C@@H](Cc1c[nH]c2ccccc12)C(=O)NCC(=O)N1CCC[C@H]1C(=O)N[C@H](C(=O)NCC(=O)N[C@@H](CC(=O)O)C(=O)N[C@@H](CCC(=O)O)C(=O)N[C@@H](CC(=O)O)C(N)=O)[C@@H](C)O` [(N-Me-E)TEFIAWGPTGDED] (Ac-[NMeE]TEFIAWGPTGDED-NH2): the Ki under setting [3] is 35 ± 1 nM. In the case of `CC[C@H](C)[C@H](NC(C)=O)C(=O)N[C@@H](C)C(=O)N[C@@H](Cc1c[nH]c2ccccc12)C(=O)NCC(=O)N1CCC[C@H]1C(=O)N[C@H](C(=O)NCC(=O)N[C@@H](CC(=O)O)C(=O)N[C@@H](CCC(=O)O)C(=O)N[C@@H](CC(=O)O)C(N)=O)[C@@H](C)O` [IAWGPTGDED] (Ac-IAWGPTGDED-NH2), the Ki (Table 5, elongation and truncation scan of AJAP-1 binding epitope, read-out: Ki (nM) mean ± SEM) is 38000 ± 430 nM. Regarding `CC[C@H](C)[C@H](NC(=O)[C@H](Cc1c[nH]c2ccccc12)NC(=O)[C@H](CO)NC(=O)[C@H](CC(=O)O)NC(=O)[C@H](CC(=O)O)NC(=O)[C@H](CCC(=O)O)NC(C)=O)C(=O)N[C@@H](CC(=O)O)C(=O)N[C@@H](Cc1c[nH]c2ccccc12)C(=O)N[C@@H](Cc1ccc(O)cc1)C(=O)NCC(=O)N[C@@H](C)C(=O)N[C@@H](CC(=O)O)C(=O)N[C@H](C(=O)N[C@@H](CC(=O)O)C(N)=O)[C@@H](C)O` [Peptide 30] (Ac-EDDSWIDWYGADTD-NH2), the Ki reads like this: under setting [4], 11 ± 0.1 nM; under setting [5], 11 ± 0.1 nM. As to `CC(=O)N[C@@H](CCC(=O)O)C(=O)N[C@@H](CCC(=O)O)C(=O)N[C@@H](CC(=O)O)C(=O)N[C@@H](CC(=O)O)C(=O)N[C@@H](CO)C(=O)N[C@@H](CC(=O)O)C(=O)N[C@H](C(=O)N[C@@H](Cc1c[nH]c2ccccc12)C(=O)N[C@@H](Cc1c[nH]c2ccccc12)C(=O)NCC(=O)NCC(N)=O)C(C)C` (Ac-EEDDSDVWWGG-NH2), the Ki under setting [2] was 1754 ± 7 nM. In the case of `CC(=O)N[C@@H](CC(=O)O)C(=O)N[C@@H](C)C(=O)N[C@@H](CCC(=O)O)C(=O)N[C@@H](CCC(=O)O)C(=O)N[C@@H](CC(=O)O)C(=O)N[C@@H](CC(=O)O)C(=O)N[C@@H](CO)C(=O)N[C@@H](CC(=O)O)C(=O)N[C@H](C(=O)N[C@@H](Cc1c[nH]c2ccccc12)C(=O)N[C@@H](Cc1c[nH]c2ccccc12)C(=O)NCC(=O)NCC(=O)N[C@@H](C)C(=O)N[C@@H](CC(=O)O)C(=O)N[C@H](C(=O)N[C@@H](CC(=O)O)C(=O)N[C@@H](Cc1ccc(O)cc1)C(=O)N[C@@H](C)C(=O)N[C@@H](CC(=O)O)C(N)=O)[C@@H](C)O)C(C)C` (Ac-DAEEDDSDVWWGGADTDYAD-NH2), the Ki under setting [2] is 247 ± 7 nM.

For `CC[C@H](C)[C@H](NC(=O)[C@H](Cc1ccccc1)NC(=O)[C@H](CCC(=O)O)NC(=O)[C@@H](NC(=O)[C@H](CCC(=O)O)NC(C)=O)[C@@H](C)O)C(=O)N[C@@H](C)C(=O)N[C@@H](Cc1c[nH]c2ccccc12)C(=O)NCC(=O)N1CCC[C@H]1C(=O)N[C@H](C(=O)NCC(=O)N[C@@H](CC(=O)O)C(=O)N[C@@H](CCC(=O)O)C(=O)N[C@@H](CC(=O)O)C(N)=O)[C@@H](C)CC` [ETEFIAWGPIGDED] (Ac-ETEFIAWGPIGDED-NH2), the Ki under setting [3] is 48 ± 2 nM. As to `CC[C@H](C)[C@H](NC(=O)[C@H](Cc1ccccc1)NC(=O)[C@H](CCC(=O)O)NC(=O)[C@@H](NC(=O)[C@H](CCC(=O)O)NC(C)=O)[C@@H](C)O)C(=O)N[C@@H](C)C(=O)N[C@@H](Cc1c[nH]c2ccccc12)C(=O)N[C@@H](Cc1ccc(O)cc1)C(=O)N1CCC[C@H]1C(=O)N[C@@H](C)C(=O)N[C@@H](CC(=O)O)C(=O)N[C@H](C(=O)N[C@@H](CC(=O)O)C(N)=O)[C@@H](C)O` (Ac-ETEFIAWYPADTD-NH2), the Ki under setting [5] is 190 ± 3 nM. In the case of `CC[C@H](C)[C@H](NC(=O)[C@H](Cc1c[nH]c2ccccc12)NC(=O)[C@H](CO)NC(=O)[C@H](CC(=O)O)NC(=O)[C@H](CC(=O)O)NC(=O)[C@H](CCC(=O)O)NC(C)=O)C(=O)N[C@@H](CC(=O)O)C(=O)N[C@@H](Cc1c[nH]c2ccccc12)C(=O)NCC(=O)N1CCC[C@H]1C(=O)N[C@H](C(=O)NCC(=O)N[C@@H](CC(=O)O)C(=O)N[C@@H](CCC(=O)O)C(=O)N[C@@H](CC(=O)O)C(N)=O)[C@@H](C)O` [Peptide 29, Ac-EDDSWIDWGPTGDED-NH2] (Ac-EDDSWIDWGPTGDED-NH2), the Ki runs as follows: under setting [4], 5.6 ± 0.7 nM; under setting [5], 5.6 ± 0.7 nM. Consider `CC(=O)N[C@@H](CCC(=O)O)C(=O)N[C@@H](CC(=O)O)C(=O)N[C@@H](CC(=O)O)C(=O)N[C@@H](C)C(=O)N[C@@H](CC(=O)O)C(=O)N[C@H](C(=O)N[C@@H](Cc1c[nH]c2ccccc12)C(=O)N[C@@H](Cc1c[nH]c2ccccc12)C(=O)NCC(=O)NCC(=O)N[C@@H](C)C(=O)N[C@@H](CC(=O)O)C(=O)N[C@H](C(=O)N[C@@H](CC(=O)O)C(N)=O)[C@@H](C)O)C(C)C` (Ac-EDDADVWWGGADTD-NH2), for which, under “Table 7, Ala-, D-amino acids and N-methylation scans of APPWT, read-out: Ki (nM) mean ± SEM”, the Ki is 660 ± 21 nM.
